What all share (format): cell-based
In assay [1] the test system is primary human adipocytes. Briefly: Inhibition of isoproterenol stimulated lipolysis in human subcutaneous adipocytes. To be noted: isoproterenol 100 nM, adipocyte primary cultures from human subcutaneous fat, FIG. 2.
The target in assay [2] is T1, hRUP38 (Homo sapiens, UniProt P49019).
T1 construct: expressed in transfected cells
Briefly: Adenylyl cyclase / cAMP Whole Cell assay in CHO cells stably transfected with hRUP38. How it is done: A modified Flash Plate™ Adenylyl Cyclase kit (New England Nuclear; Cat. No. SMP004A) was utilized for direct identification of candidate compounds as agonists to hRUP38 (Seq. Id. Nos. 1 & 2) or hRUP25 (Seq. Id. Nos. 3 & 4) in accordance with the following protocol:
CHO cells stably transfected with hRUP38 were harvested from flasks via non-enzymatic means. The cells were washed in PBS and resuspended in the manufacturer's Assay Buffer. […] To these wells, 100,000 cells in 50 μl of Assay Buffer were added and the mixture was then incubated for 30 minutes at room temperature, with gentle shaking. Following the incubation, 100 μl of Detection Buffer was added to each well, followed by incubation for 2-24 hours. Plates were counted in a Wallac MicroBeta™ plate reader using “Prot. #31” (as per manufacturer instructions).

For assay [3], the target named is T2, hRUP25 (Homo sapiens, UniProt Q8TDS4).
T2 construct: expressed in transfected cells; host or cells: CHO cells
Briefly: Adenylyl cyclase assay in CHO cells expressing hRUP25. To be noted: FIG. 1 screening data. From the text: FIG. 1. FIG. 1 presents screening data via adenylyl cyclase assay for hRUP38. […] 1-Isopropyl-1H-benzotriazole-5-carboxylic acid has no effect on CHO cells expressing hRUP25.
A modified Flash Plate™ Adenylyl Cyclase kit (New England Nuclear; Cat. No. SMP004A) was utilized for direct identification of candidate compounds as agonists to hRUP38 (Seq. Id. Nos. 1 & 2) or hRUP25 (Seq. Id. Nos. 3 & 4) in accordance with the following protocol: […]

“Also recorded” adds a separate entry of the source. Where two headings read alike, the source gives them in different places.

One may read the EC50 as the midpoint of the concentration-response curve.

T1 sequence (P49019 whole entry K94N/T173P/F198L/H253R/I317M/I346M): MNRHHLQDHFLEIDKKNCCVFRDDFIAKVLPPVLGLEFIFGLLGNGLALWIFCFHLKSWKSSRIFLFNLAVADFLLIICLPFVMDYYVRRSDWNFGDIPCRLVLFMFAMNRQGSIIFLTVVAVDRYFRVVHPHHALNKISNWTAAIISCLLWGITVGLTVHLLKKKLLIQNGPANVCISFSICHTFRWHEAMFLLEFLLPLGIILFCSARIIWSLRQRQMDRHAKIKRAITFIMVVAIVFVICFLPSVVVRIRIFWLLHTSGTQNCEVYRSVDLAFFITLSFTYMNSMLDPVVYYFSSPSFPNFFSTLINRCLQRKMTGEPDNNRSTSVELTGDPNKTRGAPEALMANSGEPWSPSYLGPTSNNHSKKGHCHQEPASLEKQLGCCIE
T2 sequence (Q8TDS4 whole entry): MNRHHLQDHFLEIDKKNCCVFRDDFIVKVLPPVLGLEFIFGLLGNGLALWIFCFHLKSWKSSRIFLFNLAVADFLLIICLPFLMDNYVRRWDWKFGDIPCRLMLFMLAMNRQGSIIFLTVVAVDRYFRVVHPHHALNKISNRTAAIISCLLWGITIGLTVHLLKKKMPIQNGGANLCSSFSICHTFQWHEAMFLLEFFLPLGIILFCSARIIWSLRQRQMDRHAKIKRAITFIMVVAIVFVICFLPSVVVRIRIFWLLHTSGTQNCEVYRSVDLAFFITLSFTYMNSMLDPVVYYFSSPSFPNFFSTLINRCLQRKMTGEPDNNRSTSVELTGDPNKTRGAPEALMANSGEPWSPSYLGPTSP

For `CC(C)n1nnc2cc(C(=O)O)ccc21` [Example 6.1, 1-Isopropyl-1H-benzotriazole-5-carboxylic acid], the “inhibition of isoproterenol stimulated lipolysis” value in assay [1] is given as “dose-dependent manner comparable to that of nicotinic acid; also recorded: dose-dependant manner comparable to that of nicotinic acid”. In addition, the EC50 is 388 nM in assay [2] (average of seven (7) trials, read-out: hRUP38 (EC50) cAMP Whole Cell) and 166 nM in assay [2] (inhibition of forskolin stimulated cAMP, hRUP38-expressing CHO cells, read-out: EC50, adenylyl cyclase assay for hRUP38 (FIG. 1)). Moreover, in assay [3], the “effect on CHO cells expressing hRUP25” value is “no effect”.

The record behind these values is patent publication US20060122240A1, “Benzotriazoles and methods of prophylaxis or treatment of metabolic-related disorders thereof” (Arena Pharmaceuticals, Inc., priority 2002, published 2006).
